Patent US20200278355A1, “CONJUGATED PROTEINS AND USES THEREOF” (THE SCRIPPS RESEARCH INSTITUTE, priority 2017, published 2020)

Biological target: T1, HA-NR0B1-WT binding to FLAG-SNW1 (Homo sapiens, UniProt P51843)
T1 construct: expressed in transfected cells; host or cells: HEK293T (pRK5-based plasmids)
Assay: Modified in vitro binding assay: HA-NR0B1-WT from compound-treated HEK293T cells binding to FLAG-SNW1
Assay type: cell-based
Conditions: HEK293T cells expressing HA-NR0B1-WT treated with compound, lysate binding to FLAG-SNW1
Procedure: FIG. 5A-FIG. 5G show covalent ligand targeting C274 disrupts NR0B1 protein complexes. […] Percentage of NR0B1 bound to SNW1 was normalized to vehicle (DMSO). A hit compound BPK-26 is marked in red. […] HEK293T cells expressing the indicated proteins were treated with BPK-29 or vehicle (3 h) prior to treatment with BPK-29yne (30 min). Immunoprecipiated proteins were analyzed by in-gel fluorescence-scanning and immunoblotting. […] HEK293T cells expressing HA-NR0B1-WT or HA-NR0B1-C274V proteins were treated with DMSO or BPK-29, after which lysates were generated and evaluated for binding to FLAG-SNW1, as shown in (B).
FIG. 11A-FIG. 11F illustrate a covalent ligand targeting Cys274 disrupts NR0B1 protein complexes. […] See also FIG. 5C. […] Top: Structures of screening hit BPK-28 and synthesized derivatives. […] FLAG-immunoprecipitates were prepared from each lysate and subjected to proteolytic digestion, whereupon tryptic peptides harboring C274 were analyzed by LC-MS/MS. […] Immunoprecipitates were analyzed by in-gel fluorescence-scanning to assess BPK-29yne labeling or by immunoblot for FLAG-NR0B1. […] In a modified in vitro binding assay shown in FIG. 5B, HEK293T cells expressing HA-NR0B1-WT or an HA-NR0B1-C274V mutant were treated with DMSO or BPK-26 (20 μM, 3 h), after which lysates were and interaction with FLAG-SNW1 assessed. […]

T1 sequence (P51843 whole entry): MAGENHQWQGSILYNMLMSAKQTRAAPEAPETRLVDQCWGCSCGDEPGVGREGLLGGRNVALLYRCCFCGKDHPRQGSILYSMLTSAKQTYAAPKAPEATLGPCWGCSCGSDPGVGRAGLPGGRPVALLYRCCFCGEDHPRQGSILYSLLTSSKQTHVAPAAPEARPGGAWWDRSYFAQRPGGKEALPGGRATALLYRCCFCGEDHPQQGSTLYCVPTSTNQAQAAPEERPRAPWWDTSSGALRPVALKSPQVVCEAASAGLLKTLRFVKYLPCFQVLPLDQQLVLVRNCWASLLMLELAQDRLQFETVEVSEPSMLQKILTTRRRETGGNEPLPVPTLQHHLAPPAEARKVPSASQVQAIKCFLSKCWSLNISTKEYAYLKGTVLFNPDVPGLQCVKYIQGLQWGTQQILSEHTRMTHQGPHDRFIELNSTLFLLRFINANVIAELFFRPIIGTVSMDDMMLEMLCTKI

SMILES: O=C(c1ccc(N2CCOCC2)cc1)N1CCCC(N(Cc2ccccc2)C(=O)CCl)CC1 (stereo not shown) [BPK-29, N-benzyl-2-chloro-N-(1-(4-morpholinobenzoyl)azepan-4-yl)acetamide]
- disruption of NR0B1-WT protein interactions (binding to FLAG-SNW1): disrupts protein interactions for NR0B1-WT
